# Test results as given in PubChem BioAssay (NCI).
#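 Briefly, cells in 96-well plates were exposed to five compound concentrations for 48 h, and endpoints were estimated by linear interpolation. Here, GI50 denotes the concentration required for 50% inhibition of growth. Definition used: TGI = concentration required for complete inhibition of growth.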
# Key:
# Assay in all cases: NCI tumour cell line growth inhibition, 48 h
# [1] = tested on: OVCAR-5 ovarian
# [2] = tested on: EKVX NSCLC
# [3] = tested on: UACC-257 melanoma
# [4] = tested on: CCRF-CEM leukemia
# [5] = tested on: KM12 colon
# [6] = tested on: CAKI-1 renal
# [7] = tested on: SF-539 CNS
# [8] = tested on: SW-620 colon
# [9] = tested on: DMS 114 small cell lung
# [10] = tested on: SNB-19 CNS
# [11] = tested on: LOX IMVI melanoma
# [12] = tested on: K-562 leukemia
# [13] = tested on: NCI-H226 lung
# [14] = tested on: HOP-62 NSCLC
# [15] = tested on: SF-268 CNS
# [16] = tested on: SK-MEL-2 melanoma
# [17] = tested on: UACC-62 melanoma
# [18] = tested on: MOLT-4 leukemia
# [19] = tested on: NCI-H23 lung
# [20] = tested on: TK-10 renal
# [21] = tested on: U251 CNS
# [22] = tested on: ACHN renal
# [23] = tested on: KM20L2 colon
# [24] = tested on: OVCAR-4 ovarian
# [25] = tested on: HOP-18 NSCLC
# [26] = tested on: LXFL 529 NSCLC
# [27] = tested on: SK-MEL-5 melanoma
# [28] = tested on: RXF-631 renal
# [29] = tested on: OVCAR-8 ovarian
smiles,measurement,setting,value
CC(C)N(C(C)C)[PH+]1O[PH+](N(C(C)C)C(C)C)O[PH+](N(C(C)C)C(C)C)O[PH+](N(C(C)C)C(C)C)O1.[C-]#[O+].[C-]#[O+].[C-]#[O+].[C-]#[O+].[C-]#[O+].[C-]#[O+].[C-]#[O+].[C-]#[O+].[Mo].[Mo] (stereo not drawn),GI50,[1],> 100 µM
same,TGI,[1],> 100 µM
same,GI50,[2],> 100 µM
same,TGI,[2],> 100 µM
same,GI50,[3],> 100 µM
same,TGI,[3],> 100 µM
same,GI50,[4],> 100 µM
same,TGI,[4],> 100 µM
same,GI50,[5],> 100 µM
same,TGI,[5],> 100 µM
same,GI50,[6],> 100 µM
same,TGI,[6],> 100 µM
same,GI50,[7],> 100 µM
same,TGI,[7],> 100 µM
same,GI50,[8],> 100 µM
same,TGI,[8],> 100 µM
same,GI50,[9],> 100 µM
same,TGI,[9],> 100 µM
same,GI50,[10],> 100 µM
same,TGI,[10],> 100 µM
same,GI50,[11],> 100 µM
same,TGI,[11],> 100 µM
same,GI50,[12],> 100 µM
same,TGI,[12],> 100 µM
same,GI50,[13],> 100 µM
same,TGI,[13],> 100 µM
same,GI50,[14],> 100 µM
same,TGI,[14],> 100 µM
same,GI50,[15],> 100 µM
same,TGI,[15],> 100 µM
same,GI50,[16],> 100 µM
same,TGI,[16],> 100 µM
same,GI50,[17],> 100 µM
same,TGI,[17],> 100 µM
same,GI50,[18],> 100 µM
same,TGI,[18],> 100 µM
same,GI50,[19],> 100 µM
same,TGI,[19],> 100 µM
same,GI50,[20],> 100 µM
same,TGI,[20],> 100 µM
same,GI50,[21],> 100 µM
same,TGI,[21],> 100 µM
same,GI50,[22],> 100 µM
same,TGI,[22],> 100 µM
same,GI50,[23],> 100 µM
same,TGI,[23],> 100 µM
same,GI50,[24],> 100 µM
same,TGI,[24],> 100 µM
same,GI50,[25],> 100 µM
same,TGI,[25],> 100 µM
same,GI50,[26],> 100 µM
same,TGI,[26],> 100 µM
same,GI50,[27],> 100 µM
same,TGI,[27],> 100 µM
same,GI50,[28],> 100 µM
same,TGI,[28],> 100 µM
same,GI50,[29],> 100 µM
same,TGI,[29],> 100 µM
